Reference: patent publication US5698560A, “Imidazoquinazoline derivatives” (Kyowa Hakko Kogyo Co., Ltd., priority 1995, dated 1997)
Where a name gives a salt, the structure may show the parent alone.

What was measured:
[1] = biological target: T1, PDE V (cGMP-specific PDE) (Canis lupus familiaris, UniProt O77746); assay: inhibitory activity on PDE V derived from canine tracheal smooth muscle; type: biochemical; conditions: 1 nM compound; substrate 1.0 μM [3H]cGMP; pH 7.2; 30° C., 10 to 30 minutes; inhibitor dissolved in 1.7% DMSO; read-out: PDE V Inhibitory activity, inhibition rate (%)
T1 construct: PDE V (cGMP-specific PDE) was purified from canine tracheal smooth muscle; from tissue; host or cells: canine tracheal smooth muscle
Procedure: The inhibitory activity on PDE derived from canine tracheal smooth muscle
According to the method of Torphy et al. [Mol. Pharmacol., 37, 206 (1990)], PDE V (cGMP-specific PDE) was purified from canine tracheal smooth muscle.
The activity was measured based on the method of Kincaid et al. [J. D. Corbin et al., Methods Enzymol., 159, 457 (1988), Academic Press, New York]. The measurement was carried out using, as a substrate, 1.0 μM [^3 H]cGMP, and the reaction was carried out in a buffer having the following composition:
50 mM N,N-bis(2-hydroxyethyl)-2-aminoethanesulfonic acid (pH 7.2), 1 mM MgCl2, 0.1 mg/ml soybean trypsin inhibitor
The reaction was started by addition of an enzyme and stopped by addition of hydrochloric acid after 10 to 30 minutes at 30° C. Thereafter, sodium hydroxide was added for neutralization and 5'-GMP was converted into guanosine using 5'-nucleotidase. The reaction solution was subjected to DEAE-Sephadex A-25 column. [^3 H]Guanosine was eluted with distilled water and the radioactivity was measured with a liquid scintillation counter. The inhibitor was dissolved in 1.7% DMSO.

rats = assay: hypotensive effect in anesthetized rats (duodenal administration); type: in vivo, male Sprague-Dawley rat; conditions: rat, i.d., within 30 minutes, average of N = 2
Procedure: The hypotensive effect in rats
After a male Sprague-Dawley rat anesthetized with urethane was fixed in the supine position, a cannula was inserted into trachea and the rat was artificially ventilated under the conditions of a tidal volume of […] and 60 breathes/min. The carotid artery and the duodenum were cannulated for measuring blood pressure and administering a drug, respectively. The drug was dissolved in distilled water and administered duodenally using the above cannula. Mean blood pressure (mBP) until 30 minutes after the drug-administration was measured and the maximum loweing rate (%) from the value before the drug-administration (100%) was determined. The average value of 2 samples was calculated in each dose. No change of mBP was observed during 30 minutes in case of administering distilled water.

Compound | inhibition at 0.001 µM [1] | Hypotensive activity, Maximum lowering rate (%) of mean blood pressure (mBP) (rats; 0.1 mg/kg) | Hypotensive activity, Maximum lowering rate (%) of mean blood pressure (mBP) (rats; 1 mg/kg) | Hypotensive activity, Maximum lowering rate (%) of mean blood pressure (mBP) (rats; 10 mg/kg)
CCn1c(=S)[nH]c2cc3c(NCc4ccc(CN5CCCCC5)cc4)ncnc3cc21 [Compound 15, 3-Ethyl-8-[4-(piperidinomethyl)benzylamino]-2,3-dihydro-1H-imidazo[4,5-g]quinazoline-2-thione.2 hydrochloride] | 63% | – | – | –
CCn1c(=O)[nH]c2cc3c(NCc4ccccc4OCCN4CCOCC4)ncnc3cc21 [Compound 21, 3-Ethyl-8-[2-(2-morpholinoethoxy)benzylamino]-2,3-dihydro-1H-imidazo[4,5-g]quinazolin-2-one.2 hydrochloride] | 29% | – | – | –
CCn1c(=S)[nH]c2cc3c(NCc4ccccc4OCCN4CCN(C)CC4)ncnc3cc21 [Compound 32, 3-Ethyl-8-{2-[2-(4-methylpiperazin-1-yl)ethoxy]benzylamino}-2,3-dihydro-1H-imidazo[4,5-g]quinazoline-2-thione.3 hydrochloride] | 79% | – | – | –
CCn1c(=S)[nH]c2cc3c(NCc4ccccc4CN4CC=CCC4)ncnc3cc21 [Compound 71, 3-Ethyl-8-[2-(1,2,3,6-tetrahydropyridin-1-ylmethyl)benzylamino]-2,3-dihydro-1H-imidazo[4,5-g]quinazoline-2-thione.2 hydrochloride] | 97% | 16.1% | 22.8% | 23.2%
CCOC(=O)C1CCN(Cc2ccccc2CNc2ncnc3cc4c(cc23)[nH]c(=O)n4CC)CC1 [Compound 76, 3-Ethyl-8-{2-[4-(ethoxycarbonyl)piperidin-1-ylmethyl]benzylamino}-2,3-dihydro-1H-imidazo[4,5-g]quinazolin-2-one.2 hydrochloride] | 88% | – | – | –
CCn1c(=S)[nH]c2cc3c(NCc4cccc(OCCCN5CCOCC5)c4)ncnc3cc21 [Compound 79, 3-Ethyl-8-[3-(3-morpholinopropoxy)benzylamino]-2,3-dihydro-1H-imidazo[4,5-g]quinazoline-2-thione.2 hydrochloride] | 95% | – | – | –

Now from value to compound, other results behind:

inhibition at 0.001 µM [1] | Compound | Hypotensive activity, Maximum lowering rate (%) of mean blood pressure (mBP) (rats; 0.1 mg/kg) | Hypotensive activity, Maximum lowering rate (%) of mean blood pressure (mBP) (rats; 1 mg/kg) | Hypotensive activity, Maximum lowering rate (%) of mean blood pressure (mBP) (rats; 10 mg/kg)
74% | CCn1c(=O)[nH]c2cc3c(NCc4ccccc4CN4CCOCC4)ncnc3cc21 [Compound 1, 3-Ethyl-8-[2-(morpholinomethyl)benzylamino]-2,3-dihydro-1H-imidazo[4,5-g]quinazolin-2-one.2 hydrochloride] | – | – | –
97% | CCn1c(=S)[nH]c2cc3c(NCc4ccccc4CN4CCOCC4)ncnc3cc21 [Compound 4, 3-Ethyl-8-[2-(morpholinomethyl)benzylamino]-2,3-dihydro-1H-imidazo[4,5-g]quinazoline-2-thione.2 hydrochloride] | 9.0% | 21.5% | 25.1%
91% | CCn1c(=S)[nH]c2cc3c(NCc4ccccc4OCCN4CCOCC4)ncnc3cc21 [Compound 29, 3-Ethyl-8-[2-(2-morpholinoethoxy)benzylamino]-2,3-dihydro-1H-imidazo[4,5-g]quinazoline-2-thione.2 hydrochloride] | – | – | –
89% | CCn1c(=S)[nH]c2cc3c(NCc4ccc(OCCN5CCOCC5)cc4)ncnc3cc21 [Compound 42, 3-Ethyl-8-[4-(2-morpholinoethoxy)benzylamino]-2,3-dihydro-1H-imidazo[4,5-g]quinazoline-2-thione.2 hydrochloride] | – | – | –
92% | CCOC(=O)C1CCN(Cc2ccccc2CNc2ncnc3cc4c(cc23)[nH]c(=S)n4CC)CC1 [Compound 75, 3-Ethyl-8-{2-[4-(ethoxycarbonyl)piperidin-1-ylmethyl]benzylamino}-2,3-dihydro-1H-imidazo[4,5-g]quinazoline-2-thione.2 hydrochloride] | – | – | –
92% | CCN(CC)CCCOc1cccc(CNc2ncnc3cc4c(cc23)[nH]c(=S)n4CC)c1 [Compound 80, 8-{3-[3-(Diethylamino)propoxy]benzylamino}-3-ethyl-2,3-dihydro-1H-imidazo[4,5-g]quinazoline-2-thione.2 hydrochloride] | – | – | –
